Laboratory results published in ChEMBL document CHEMBL1150904, “Cytotoxic isoflavans from Eysenhardtia polystachya” (1998).
Converted amounts (≈) assume the structure as drawn.

Key:
KB = assay: Cytotoxicity against human KB cells after 72 hrs; format: functional; details: read-out: ED50 (the source's name)
Spodoptera frugiperda = assay: Insecticidal activity against Spodoptera frugiperda; format: functional

COc1cc(OC)c(-c2coc3cc(O)ccc3c2=O)cc1OC
EC50 (KB): > 4 µg/mL

COc1cc([C@H]2COc3c(ccc(O)c3OC)C2)c(OC)c(OC)c1OC
LC50 (Spodoptera frugiperda): >1000 ng/cm2
EC50 (KB): 3.8 µg/mL (≈ 10.1 µM)

COc1cc([C@H]2COc3c(ccc(O)c3OC)C2)c(OC)c(O)c1OC
LC50 (Spodoptera frugiperda): >1000 ng/cm2
EC50 (KB): 3 µg/mL (≈ 8.28 µM)

COc1ccc2c(c1OC)OC[C@H]1c3cc4c(cc3O[C@@H]21)OCO4
EC50 (KB): > 4 µg/mL

COc1cc2c(cc1-c1coc3cc(O)ccc3c1=O)OCO2 [CUNEATIN]
EC50 (KB): > 4 µg/mL

COc1ccc(C2COc3c(ccc(O)c3OC)C2)c(O)c1OC (stereo not given) [ISODUARTIN]
LC50 (Spodoptera frugiperda): >1000 ng/cm2
EC50 (KB): 2.63 µg/mL (≈ 7.91 µM)

CC[C@H](/C=C/[C@@H](C)[C@H]1CC[C@H]2[C@@H]3CC=C4C[C@@H](O)CC[C@]4(C)[C@H]3CC[C@]12C)C(C)C [STIGMASTEROL]
EC50 (KB): > 4 µg/mL
